Results reported in US20130005573A1, “COMPOSITIONS AND METHODS OF USE FOR KETONES AND ALDEHYDES AS HERBICIDES” (North Carolina State University, priority 2010, published 2013).

Columns and labels:
Tomato seedlings = experiment: Greenhouse fine mist foliar spray on tomato seedlings; assay type: in vivo
Description: (§1) This experiment was conducted in a greenhouse setting. Tomato seedlings in 4 to 6 true-leaf stage and 3-5 inch tall potato plants were treated with a fine mist spray comprising a solution of >2% 2-undecanone in 95% ethanol.

potato plants = experiment: Greenhouse fine mist foliar spray on potato plants; assay type: in vivo; settings: >2% in 95% ethanol
Description: as §1

bean plants = experiment: Herbicidal spray treatment on bean plants; assay type: in vivo; settings: 20% solution (wt/vol) in absolute ethanol, sprayed to run off
Description: Experiment 3 exemplifies the herbicidal activity of 2-undecanone on bean plants. The bean plant on the left in FIG. 3 was treated with a 20% solution (wt/vol) of 2-undecanone in a carrier comprising absolute ethanol. The bean plant on the right was treated with the absolute ethanol carrier only. Treatments were made by spraying each plant until “run off” levels were achieved. […] In contrast, the plant on the right (ethanol control) never differed in appearance from the no-spray controls (not shown). […] All treatments of the bean plants described above were performed in North Carolina during the summer months under a shelter; the bean plants were protected from the elements but were watered regularly. The plants also received direct sunlight for about 8 hours from approximately noon until sunset.

wild-type grass = experiment: Spray treatment of test plots of wild-type grass; assay type: in vivo, grass (monocotyledon)
Description: Two experiments were initiated that tested the activity of an acyclic ketone on a common monocotyledon. The test plots comprised similar areas of wild-type grass. The area of each test plot of grass was defined to be the area within a square measuring approximately 15 inches on a side. The experiments were conducted using two different formulations of the same test material: the formulation tested in Experiment 6 comprised a 5% (wt/vol) mixture of undecanone in absolute ethanol; the formulation tested in Experiment 7 comprised a 5% (wt/vol) mixture of undecanone in water.
A measured amount of each formulation was sprayed onto its appropriate test area using a hand held spray bottle; the spray bottle produced a fine mist in each case. […] The details of each experiment are provided separately below.
In Experiment 6, 40 ml of a 5% formulation of the test material in ethanol (wt/vol) was evenly sprayed on one of two adjacent test plots of grass. This treated plot was located on the right side of the test plot pair. The adjacent test plot (left; control plot) was sprayed in an identical fashion with a spray bottle containing 40 mL of the ethanol carrier as a control; the time difference for completing the spraying of the two grassy test plots was less than 2 minutes. The effects of the spray formulations on the test plots were noted over time and images were captured at several time points for later comparisons (see FIGS. 5A, 5B and 5C for images). FIGS. 5A, 5B and 5C are images showing the effects of spraying a 5% formulation of the test material in ethanol and ethanol control on test plots of grass in accordance with embodiments of the present disclosure.
Visible differences were observed within a 30 minute period following the spray applications of control and test compound formulations comprising ethanol. […] The appearance of the plots at the one-hour time point are shown in the FIG. 5B image, and the appearance of the plots at the twenty four-hour time point are shown in the FIG. 5C image.
The conditions and amounts of materials used in Experiment 7 were similar to those employed in Experiment 6, with the exception that both the formulation comprising the active ingredient and the solution of carrier comprised water in the place of ethanol. In Experiment 7, the early toxicity effects were delayed compared to the early toxicity effects noted in Experiment 6. […] The appearance of the areas treated with the formulation comprising water were photographed at the 24 hour time point and can be seen in the image of FIG. 6B.

wild henbit = experiment: Herbicidal spray treatment on henbit under winter field conditions; assay type: in vivo, henbit (Lamium amplexicaule)
Description: FIG. 1 is an image showing results of tests used to determine the herbicidal activity of a spray treatment comprising the use of a 5% solution of 2-undecanone in ethanol. The image was captured approximately 2 hours after the spray-applications of materials to henbit under winter field conditions. Both of the weed groups shown in FIG. 1 are groups of wild henbit. Treatment of the group of henbit plants on the left side of FIG. 1 (control group) consisted of spraying the group with 100 ml of the carrier as a fine mist; the carrier comprised absolute ethanol (without the herbicide). Treatment of the group of henbit plants on the right side of FIG. 1 (treatment group) consisted of spraying the group with 100 ml of the herbicide/carrier mixture (5 wt % of 2-undecanone/100 mL solution) as a fine mist. The image was captured 2 hours after treatment.
Because the sprayer produced a very fine mist in each case, and there may have been spray drift (from the wind) during these treatments, evaporation and dissipation of these misty sprays occurred to some degree before and while each spray hit its targeted group of plant material.
Experiment 2 is similar to Experiment 1, in that it tests the herbicidal activity of an experimental spray treatment on henbit. The herbicidal spray treatments of Experiment 2 comprised the use of a 20% solution of 2-undecanone in ethanol (20 wt % of 2-undecanone/100 mL solution). The experimental results are featured in FIGS. 2A, 2B and 2C, the henbit treatment group receiving the 2-undecanone spray treatment is located on the right side of the image shown in FIG. 2A. The control group was treated with a spray comprising just the carrier (absolute ethanol); the henbit treatment group receiving this carrier-only spray treatment (control group) is located on the left side of the image shown in FIG. 2A. The image was captured 4 days after the spray-applications of these materials to the groups of henbit under winter field conditions. […]

## CCCCCCCCCC(C)=O [2-undecanone]
Tomato seedlings; >2% in 95% ethanol, fine mist to foliage
  subsequent outcome after foliage death: plant death
Tomato seedlings; >2% in 95% ethanol, fine mist to foliage, seedlings in 4 to 6 true-leaf stage
  time to death of the plants' foliage: ≤ 24 h
Tomato seedlings; less than 1% in 95% ethanol, similar application
  effect on tomato plants at low concentration: death of foliage followed by re-foliation some days later
Potato plants; 3-5 inch tall plants
  time to death of the plants' foliage: ≤ 24 h
Potato plants; fine mist to foliage
  subsequent outcome after foliage death: plant death
Bean plants; 2 weeks after treatment
  leaf color of treated bean plant: yellow
Bean plants; day of treatment
  onset of change in appearance of treated bean plant: started to change its appearance and character shortly after the spray treatment was complete
wild-type grass; Experiment 6: 5% (wt/vol) in ethanol, up to 24 hours
  course of herbicidal toxicity over time: increase with time
wild-type grass; Experiment 6: 40 ml of 5% (wt/vol) in ethanol
  time to visible differences versus control plot: ≤ 30 min
wild-type grass; Experiment 6: 40 ml of 5% (wt/vol) in ethanol, after 30 minutes
  appearance of treated grass: appeared brown
wild-type grass; Experiment 7: 5% (wt/vol) in water
  time to first toxicity effects after spraying: 2 to 3 h
wild-type grass; Experiment 7: 5% (wt/vol) in water, at 24 hours
  visual appearance of water-carrier plots compared with ethanol-carrier plots: similar
Wild henbit; 5% solution in ethanol, 100 ml fine mist, below run-off, approximately 2 hours after treatment
  changes in color and vitality of treated henbit plants: had lost much of their green color and vitality, and had turned yellow
Wild henbit; 20% (wt/vol) in absolute ethanol, 100 ml spray, 4 days after treatment
  overall state of treated henbit group versus control: appeared to be dead or dying
Wild henbit; 20% (wt/vol) in absolute ethanol, 100 ml spray, below run-off, 4 days after treatment
  effect on stems of treated henbit plants: had become significantly weakened and had become flaccid
